Measurements published in ChEMBL document CHEMBL1150977, “A quantitative analysis of kinase inhibitor selectivity” (Nat Biotechnol, 2008).

Assays:
[1] = biological target: AP2-associated protein kinase 1 (Homo sapiens, UniProt Q2M2I8)
[2] = biological target: Serine/threonine-protein kinase MRCK beta (Homo sapiens, UniProt Q9Y5S2)
Angiopoietin-1 receptor = Angiopoietin-1 receptor (Homo sapiens, UniProt Q02763)
[3] = biological target: Death-associated protein kinase 3 (Homo sapiens, UniProt O43293)
Sequence of Death-associated protein kinase 3 (O43293 whole entry): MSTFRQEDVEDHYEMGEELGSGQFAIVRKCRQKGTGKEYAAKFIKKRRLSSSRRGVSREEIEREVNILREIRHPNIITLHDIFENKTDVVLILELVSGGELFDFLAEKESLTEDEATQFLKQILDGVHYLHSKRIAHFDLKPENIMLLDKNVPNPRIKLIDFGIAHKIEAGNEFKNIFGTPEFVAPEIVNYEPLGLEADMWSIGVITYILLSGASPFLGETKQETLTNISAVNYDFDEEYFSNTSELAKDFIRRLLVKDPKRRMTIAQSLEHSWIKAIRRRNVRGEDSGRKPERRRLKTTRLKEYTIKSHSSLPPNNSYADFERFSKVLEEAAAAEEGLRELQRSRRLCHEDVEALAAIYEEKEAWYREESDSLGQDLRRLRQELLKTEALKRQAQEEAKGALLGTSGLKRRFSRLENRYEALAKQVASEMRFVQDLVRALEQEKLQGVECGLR

Myosin-IIIa = Myosin-IIIa (Homo sapiens, UniProt Q8NEV4)
Sequence of Myosin-IIIa (Q8NEV4 whole entry): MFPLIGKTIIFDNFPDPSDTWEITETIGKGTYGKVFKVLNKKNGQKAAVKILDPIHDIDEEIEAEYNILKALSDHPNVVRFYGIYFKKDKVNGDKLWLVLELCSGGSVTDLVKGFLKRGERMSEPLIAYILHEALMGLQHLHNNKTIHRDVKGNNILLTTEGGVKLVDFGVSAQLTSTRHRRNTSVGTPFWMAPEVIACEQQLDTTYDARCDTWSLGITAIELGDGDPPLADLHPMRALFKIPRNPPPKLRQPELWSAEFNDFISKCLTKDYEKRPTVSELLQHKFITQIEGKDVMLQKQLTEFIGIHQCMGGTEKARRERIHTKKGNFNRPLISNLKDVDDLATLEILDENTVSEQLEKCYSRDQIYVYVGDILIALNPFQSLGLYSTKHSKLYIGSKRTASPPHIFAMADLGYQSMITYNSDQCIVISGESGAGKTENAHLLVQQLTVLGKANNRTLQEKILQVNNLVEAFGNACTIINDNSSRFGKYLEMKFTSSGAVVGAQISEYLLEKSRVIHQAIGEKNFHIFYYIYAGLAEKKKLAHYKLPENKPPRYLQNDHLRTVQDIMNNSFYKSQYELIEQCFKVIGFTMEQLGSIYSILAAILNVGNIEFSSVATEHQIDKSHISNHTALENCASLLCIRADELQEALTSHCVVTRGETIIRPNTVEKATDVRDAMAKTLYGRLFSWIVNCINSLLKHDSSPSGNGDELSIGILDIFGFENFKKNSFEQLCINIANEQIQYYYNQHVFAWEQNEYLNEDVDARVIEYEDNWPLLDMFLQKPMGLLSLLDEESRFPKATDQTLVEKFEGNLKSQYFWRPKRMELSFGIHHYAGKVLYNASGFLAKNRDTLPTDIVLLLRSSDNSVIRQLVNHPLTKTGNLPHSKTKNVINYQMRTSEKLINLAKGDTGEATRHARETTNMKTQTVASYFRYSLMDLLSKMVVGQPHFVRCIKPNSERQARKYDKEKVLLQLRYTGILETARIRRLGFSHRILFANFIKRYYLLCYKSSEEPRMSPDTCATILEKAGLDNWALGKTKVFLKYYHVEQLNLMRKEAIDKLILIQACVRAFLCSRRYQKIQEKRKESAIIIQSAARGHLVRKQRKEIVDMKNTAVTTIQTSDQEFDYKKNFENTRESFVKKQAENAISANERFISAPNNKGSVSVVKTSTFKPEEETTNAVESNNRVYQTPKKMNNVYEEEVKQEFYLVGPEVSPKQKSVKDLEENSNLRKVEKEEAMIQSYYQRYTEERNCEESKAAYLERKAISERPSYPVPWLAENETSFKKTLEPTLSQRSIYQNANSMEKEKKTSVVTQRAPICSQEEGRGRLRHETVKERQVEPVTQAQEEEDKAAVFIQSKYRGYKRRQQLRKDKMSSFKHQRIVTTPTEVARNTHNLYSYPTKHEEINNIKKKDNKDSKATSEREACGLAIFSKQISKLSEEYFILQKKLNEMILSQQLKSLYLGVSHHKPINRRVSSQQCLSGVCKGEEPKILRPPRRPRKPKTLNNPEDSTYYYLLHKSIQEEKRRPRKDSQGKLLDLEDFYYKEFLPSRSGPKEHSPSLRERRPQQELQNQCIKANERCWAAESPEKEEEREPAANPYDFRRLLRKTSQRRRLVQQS

[4] = biological target: Cyclin-dependent kinase 18 (Homo sapiens, UniProt Q07002)
Sequence of Cyclin-dependent kinase 18 (Q07002 whole entry): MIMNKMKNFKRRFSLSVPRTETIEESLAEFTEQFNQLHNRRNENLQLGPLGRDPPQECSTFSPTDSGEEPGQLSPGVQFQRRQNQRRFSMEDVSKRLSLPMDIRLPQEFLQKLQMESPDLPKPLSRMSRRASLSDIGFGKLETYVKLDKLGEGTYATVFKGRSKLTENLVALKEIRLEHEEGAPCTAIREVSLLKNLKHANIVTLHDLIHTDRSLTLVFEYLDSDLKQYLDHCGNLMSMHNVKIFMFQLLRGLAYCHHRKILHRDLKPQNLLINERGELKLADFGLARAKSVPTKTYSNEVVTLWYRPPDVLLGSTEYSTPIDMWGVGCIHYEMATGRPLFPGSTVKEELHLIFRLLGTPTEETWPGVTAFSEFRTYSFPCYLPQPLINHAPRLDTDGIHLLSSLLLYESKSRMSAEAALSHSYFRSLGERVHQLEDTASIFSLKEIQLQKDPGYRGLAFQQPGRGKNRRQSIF

[5] = biological target: T1, cGMP-dependent protein kinase 1 (Homo sapiens, UniProt Q13976)
T1 sequence (Q13976 whole entry): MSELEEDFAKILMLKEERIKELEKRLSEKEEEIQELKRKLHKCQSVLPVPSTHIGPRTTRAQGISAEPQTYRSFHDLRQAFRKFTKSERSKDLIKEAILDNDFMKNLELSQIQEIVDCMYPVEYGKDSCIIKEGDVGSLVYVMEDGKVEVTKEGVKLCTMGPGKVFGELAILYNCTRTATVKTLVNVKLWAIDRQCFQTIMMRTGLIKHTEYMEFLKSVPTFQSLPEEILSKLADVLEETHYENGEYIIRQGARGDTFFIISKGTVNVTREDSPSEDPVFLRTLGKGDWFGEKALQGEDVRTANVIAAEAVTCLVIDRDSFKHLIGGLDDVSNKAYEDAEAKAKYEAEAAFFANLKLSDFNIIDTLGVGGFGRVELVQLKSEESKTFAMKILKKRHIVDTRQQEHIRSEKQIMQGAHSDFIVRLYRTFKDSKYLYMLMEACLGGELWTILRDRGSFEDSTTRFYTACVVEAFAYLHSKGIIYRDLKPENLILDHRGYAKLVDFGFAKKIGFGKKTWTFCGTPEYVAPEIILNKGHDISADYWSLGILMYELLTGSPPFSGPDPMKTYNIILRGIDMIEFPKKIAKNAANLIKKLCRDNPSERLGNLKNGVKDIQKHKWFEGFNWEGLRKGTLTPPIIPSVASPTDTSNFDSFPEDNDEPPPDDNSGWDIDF

[6] = biological target: T2, Serine/threonine-protein kinase D3 (Homo sapiens, UniProt O94806)
T2 sequence (O94806 whole entry): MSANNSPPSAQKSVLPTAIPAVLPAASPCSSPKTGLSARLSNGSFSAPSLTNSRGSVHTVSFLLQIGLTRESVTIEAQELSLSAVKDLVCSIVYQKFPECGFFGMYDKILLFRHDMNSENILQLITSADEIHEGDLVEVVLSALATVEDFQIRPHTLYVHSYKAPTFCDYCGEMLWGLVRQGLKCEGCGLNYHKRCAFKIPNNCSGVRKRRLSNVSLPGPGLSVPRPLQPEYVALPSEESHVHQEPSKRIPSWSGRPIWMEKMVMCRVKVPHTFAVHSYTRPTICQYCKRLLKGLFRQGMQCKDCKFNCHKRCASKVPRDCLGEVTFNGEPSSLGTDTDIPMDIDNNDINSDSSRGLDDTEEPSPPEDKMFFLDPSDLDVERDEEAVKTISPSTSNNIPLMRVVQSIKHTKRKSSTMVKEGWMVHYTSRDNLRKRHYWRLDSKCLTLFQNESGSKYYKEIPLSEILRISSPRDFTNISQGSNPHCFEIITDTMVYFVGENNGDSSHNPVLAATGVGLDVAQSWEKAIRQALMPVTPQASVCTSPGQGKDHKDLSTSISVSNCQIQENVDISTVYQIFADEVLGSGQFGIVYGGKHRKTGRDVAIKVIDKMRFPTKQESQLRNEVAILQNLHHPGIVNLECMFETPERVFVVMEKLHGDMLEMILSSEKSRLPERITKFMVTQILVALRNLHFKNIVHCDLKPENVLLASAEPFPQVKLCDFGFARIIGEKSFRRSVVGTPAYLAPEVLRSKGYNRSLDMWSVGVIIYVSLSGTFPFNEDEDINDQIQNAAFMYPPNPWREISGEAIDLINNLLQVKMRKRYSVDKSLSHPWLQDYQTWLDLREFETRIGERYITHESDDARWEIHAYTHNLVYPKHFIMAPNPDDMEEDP

Ephrin type-A receptor 7 = Ephrin type-A receptor 7 (Homo sapiens, UniProt Q15375)
[7] = biological target: Mitogen-activated protein kinase 1 (Homo sapiens, UniProt P28482)
Sequence of Mitogen-activated protein kinase 1 (P28482 whole entry): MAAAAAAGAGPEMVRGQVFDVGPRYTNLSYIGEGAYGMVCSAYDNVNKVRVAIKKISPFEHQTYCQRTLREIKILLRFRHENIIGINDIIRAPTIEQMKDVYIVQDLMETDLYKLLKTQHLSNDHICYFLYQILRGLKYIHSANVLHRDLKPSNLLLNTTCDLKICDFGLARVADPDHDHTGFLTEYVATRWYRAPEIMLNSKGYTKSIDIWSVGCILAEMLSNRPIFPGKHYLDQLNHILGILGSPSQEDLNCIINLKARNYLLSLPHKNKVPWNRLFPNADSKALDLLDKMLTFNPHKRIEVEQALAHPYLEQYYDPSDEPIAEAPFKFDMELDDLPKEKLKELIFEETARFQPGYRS

[8] = biological target: MAP kinase-interacting serine/threonine-protein kinase 1 (Homo sapiens, UniProt Q9BUB5)
Sequence of MAP kinase-interacting serine/threonine-protein kinase 1 (Q9BUB5 whole entry): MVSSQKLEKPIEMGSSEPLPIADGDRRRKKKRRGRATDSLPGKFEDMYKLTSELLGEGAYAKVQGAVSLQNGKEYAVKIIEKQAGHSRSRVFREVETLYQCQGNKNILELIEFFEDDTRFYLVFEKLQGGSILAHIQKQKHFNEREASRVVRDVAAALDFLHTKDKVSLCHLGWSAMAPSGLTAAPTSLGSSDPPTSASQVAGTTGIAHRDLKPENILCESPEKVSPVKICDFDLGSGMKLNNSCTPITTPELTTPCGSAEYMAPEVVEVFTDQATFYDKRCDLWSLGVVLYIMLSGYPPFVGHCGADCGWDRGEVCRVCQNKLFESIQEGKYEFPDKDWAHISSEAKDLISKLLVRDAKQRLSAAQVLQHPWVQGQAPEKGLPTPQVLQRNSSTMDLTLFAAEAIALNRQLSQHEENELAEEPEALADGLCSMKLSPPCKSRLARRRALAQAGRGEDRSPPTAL

[9] = biological target: T3, Serine/threonine-protein kinase Nek2 (Homo sapiens, UniProt P51955)
T3 sequence (P51955 whole entry): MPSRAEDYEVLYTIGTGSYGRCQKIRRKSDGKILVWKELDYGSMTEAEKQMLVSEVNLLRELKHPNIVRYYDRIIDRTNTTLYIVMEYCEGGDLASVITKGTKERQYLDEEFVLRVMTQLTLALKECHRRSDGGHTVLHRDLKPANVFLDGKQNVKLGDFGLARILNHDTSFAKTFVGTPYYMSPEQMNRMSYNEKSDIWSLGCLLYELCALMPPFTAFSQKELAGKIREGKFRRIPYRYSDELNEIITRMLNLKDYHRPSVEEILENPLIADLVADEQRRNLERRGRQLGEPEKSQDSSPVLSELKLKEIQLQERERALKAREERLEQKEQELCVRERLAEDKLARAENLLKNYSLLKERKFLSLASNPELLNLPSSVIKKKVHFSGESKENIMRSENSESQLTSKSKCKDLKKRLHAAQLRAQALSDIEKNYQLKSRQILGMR

[10] = biological target: Serine/threonine-protein kinase Nek7 (Homo sapiens, UniProt Q8TDX7)
Sequence of Serine/threonine-protein kinase Nek7 (Q8TDX7 whole entry): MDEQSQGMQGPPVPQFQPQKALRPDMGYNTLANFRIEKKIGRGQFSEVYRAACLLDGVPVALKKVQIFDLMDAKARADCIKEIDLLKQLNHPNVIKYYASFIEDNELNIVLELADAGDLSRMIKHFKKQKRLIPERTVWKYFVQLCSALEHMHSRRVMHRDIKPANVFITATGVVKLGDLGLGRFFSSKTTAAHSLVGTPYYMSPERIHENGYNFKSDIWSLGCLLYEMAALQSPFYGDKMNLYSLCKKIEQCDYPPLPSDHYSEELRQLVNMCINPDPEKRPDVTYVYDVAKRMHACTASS

Sequence of AP2-associated protein kinase 1 (Q2M2I8 whole entry): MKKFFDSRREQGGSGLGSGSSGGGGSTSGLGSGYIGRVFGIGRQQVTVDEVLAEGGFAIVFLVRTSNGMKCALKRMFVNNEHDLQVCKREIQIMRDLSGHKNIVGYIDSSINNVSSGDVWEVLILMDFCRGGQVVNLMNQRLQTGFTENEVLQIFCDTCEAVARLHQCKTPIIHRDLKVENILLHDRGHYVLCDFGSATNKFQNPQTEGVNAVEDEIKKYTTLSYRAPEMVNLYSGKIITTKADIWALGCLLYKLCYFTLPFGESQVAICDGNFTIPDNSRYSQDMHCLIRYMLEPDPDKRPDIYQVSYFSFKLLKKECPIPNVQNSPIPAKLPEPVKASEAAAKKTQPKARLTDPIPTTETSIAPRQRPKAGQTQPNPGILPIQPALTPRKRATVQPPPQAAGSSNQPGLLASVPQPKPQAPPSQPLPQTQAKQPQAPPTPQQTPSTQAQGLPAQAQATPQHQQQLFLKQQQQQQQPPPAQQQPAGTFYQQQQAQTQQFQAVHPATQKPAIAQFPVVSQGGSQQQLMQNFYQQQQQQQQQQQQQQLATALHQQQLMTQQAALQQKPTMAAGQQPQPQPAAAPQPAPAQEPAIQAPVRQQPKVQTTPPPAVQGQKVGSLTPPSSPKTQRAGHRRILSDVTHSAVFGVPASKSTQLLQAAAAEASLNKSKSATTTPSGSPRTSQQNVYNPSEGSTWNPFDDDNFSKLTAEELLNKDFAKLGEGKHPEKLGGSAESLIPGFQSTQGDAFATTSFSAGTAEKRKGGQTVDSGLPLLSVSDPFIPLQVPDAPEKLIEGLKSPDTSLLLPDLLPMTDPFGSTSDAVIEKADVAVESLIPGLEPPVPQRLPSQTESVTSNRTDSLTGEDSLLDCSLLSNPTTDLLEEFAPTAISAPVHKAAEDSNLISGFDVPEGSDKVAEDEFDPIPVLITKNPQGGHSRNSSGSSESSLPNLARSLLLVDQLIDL

Structure (SMILES) | Kd [1] | Kd [2] | Kd (Angiopoietin-1 receptor) | Kd [3] | Kd (Myosin-IIIa) | Kd [4] | Kd [5] | Kd [6] | Kd (Ephrin type-A receptor 7) | Kd [7] | Kd [8] | Kd [9] | Kd [10]
COCC(=O)NC/C=C/c1ccc2ncnc(Nc3ccc(Oc4ccc(C)nc4)c(C)c3)c2c1 [CP-724714] | > 10 µM | > 10 µM | > 10 µM | > 10 µM | > 10 µM | > 10 µM | > 10 µM | > 10 µM | > 10 µM | > 10 µM | > 10 µM | > 10 µM | > 10 µM
Nc1nc(Nc2ccc(S(N)(=O)=O)cc2)nn1C(=O)c1c(F)cccc1F [JNJ-7706621] |  | > 10 µM |  | > 10 µM | > 10 µM |  | > 10 µM |  | 3.1 µM |  | > 10 µM |  | > 10 µM
CCOc1cc2ncc(C#N)c(Nc3ccc(F)c(Cl)c3)c2cc1NC(=O)/C=C/CN(C)C [PELITINIB] |  | > 10 µM | > 10 µM |  | > 10 µM | > 10 µM | > 10 µM | > 10 µM | > 10 µM | > 10 µM | > 10 µM |  | > 10 µM
Oc1ccc(-c2nc(-c3ccncc3)c(-c3ccc(F)cc3)[nH]2)cc1 [SB-202190] | > 10 µM | 4.2 µM | > 10 µM | > 10 µM | > 10 µM | > 10 µM | > 10 µM | > 10 µM | > 10 µM | > 10 µM | > 10 µM | > 10 µM | > 10 µM
NC(=O)c1ccc(-c2nc(-c3ccc4c(c3)OCO4)c(-c3ccccn3)[nH]2)cc1 [SB-431542] | > 10 µM | > 10 µM | > 10 µM | > 10 µM | > 10 µM | > 10 µM | > 10 µM |  | > 10 µM | > 10 µM | > 10 µM | > 10 µM | > 10 µM
